# Experimental data from US11084818B2 (HEPO PHARMACEUTICAL CO., LTD., priority 2016, dated 2021).
# Experiments:
# [1] = molecular target: T1, hTLR8 (Homo sapiens, UniProt Q9NR97); assay: Activation activity test of hTLR8 (HEK-Blue hTLR8 cells, QUANTI-Blue OD650); assay type: cell-based; conditions: HEK-Blue hTLR8 cells, 24 hours incubation; read-out: TLR8 (EC50)
# T1 construct: host or cells: HEK-Blue hTLR8 (HEK293-derived reporter line)
# T1 sequence (Q9NR97 27-1041): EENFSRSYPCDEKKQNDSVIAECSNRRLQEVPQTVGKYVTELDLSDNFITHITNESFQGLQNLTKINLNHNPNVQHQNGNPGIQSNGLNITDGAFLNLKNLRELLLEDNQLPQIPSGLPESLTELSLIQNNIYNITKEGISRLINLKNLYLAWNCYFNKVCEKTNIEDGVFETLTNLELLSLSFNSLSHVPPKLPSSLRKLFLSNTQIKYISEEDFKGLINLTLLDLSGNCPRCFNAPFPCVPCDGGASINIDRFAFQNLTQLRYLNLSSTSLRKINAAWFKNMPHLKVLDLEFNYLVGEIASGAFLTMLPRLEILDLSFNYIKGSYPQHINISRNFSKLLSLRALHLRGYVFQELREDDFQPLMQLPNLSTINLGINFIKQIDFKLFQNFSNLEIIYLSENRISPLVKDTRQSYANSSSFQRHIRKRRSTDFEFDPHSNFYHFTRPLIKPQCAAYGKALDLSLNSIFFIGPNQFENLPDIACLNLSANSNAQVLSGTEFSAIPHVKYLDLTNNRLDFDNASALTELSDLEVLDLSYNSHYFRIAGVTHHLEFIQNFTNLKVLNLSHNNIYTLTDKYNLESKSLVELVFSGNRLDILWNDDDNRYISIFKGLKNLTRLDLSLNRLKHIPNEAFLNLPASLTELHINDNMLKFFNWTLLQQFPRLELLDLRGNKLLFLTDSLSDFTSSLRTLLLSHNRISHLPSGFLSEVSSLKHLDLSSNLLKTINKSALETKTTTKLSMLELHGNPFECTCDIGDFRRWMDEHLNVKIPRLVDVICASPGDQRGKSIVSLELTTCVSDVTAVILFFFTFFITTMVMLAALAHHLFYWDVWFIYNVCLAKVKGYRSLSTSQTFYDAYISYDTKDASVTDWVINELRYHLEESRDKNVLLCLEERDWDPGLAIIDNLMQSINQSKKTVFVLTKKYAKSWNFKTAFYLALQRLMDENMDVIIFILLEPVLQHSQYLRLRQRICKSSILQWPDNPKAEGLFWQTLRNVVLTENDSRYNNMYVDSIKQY
# [2] = molecular target: T2, hTLR7 (Homo sapiens, UniProt Q9NYK1); assay: Activation activity test of hTLR7 (HEK-Blue hTLR7 cells, QUANTI-Blue OD650); assay type: cell-based; conditions: 24 hours incubation, read-out: TLR7 (EC50)
# T2 construct: host or cells: HEK-Blue hTLR7 (HEK293-derived reporter line)
# T2 sequence (Q9NYK1 27-1049): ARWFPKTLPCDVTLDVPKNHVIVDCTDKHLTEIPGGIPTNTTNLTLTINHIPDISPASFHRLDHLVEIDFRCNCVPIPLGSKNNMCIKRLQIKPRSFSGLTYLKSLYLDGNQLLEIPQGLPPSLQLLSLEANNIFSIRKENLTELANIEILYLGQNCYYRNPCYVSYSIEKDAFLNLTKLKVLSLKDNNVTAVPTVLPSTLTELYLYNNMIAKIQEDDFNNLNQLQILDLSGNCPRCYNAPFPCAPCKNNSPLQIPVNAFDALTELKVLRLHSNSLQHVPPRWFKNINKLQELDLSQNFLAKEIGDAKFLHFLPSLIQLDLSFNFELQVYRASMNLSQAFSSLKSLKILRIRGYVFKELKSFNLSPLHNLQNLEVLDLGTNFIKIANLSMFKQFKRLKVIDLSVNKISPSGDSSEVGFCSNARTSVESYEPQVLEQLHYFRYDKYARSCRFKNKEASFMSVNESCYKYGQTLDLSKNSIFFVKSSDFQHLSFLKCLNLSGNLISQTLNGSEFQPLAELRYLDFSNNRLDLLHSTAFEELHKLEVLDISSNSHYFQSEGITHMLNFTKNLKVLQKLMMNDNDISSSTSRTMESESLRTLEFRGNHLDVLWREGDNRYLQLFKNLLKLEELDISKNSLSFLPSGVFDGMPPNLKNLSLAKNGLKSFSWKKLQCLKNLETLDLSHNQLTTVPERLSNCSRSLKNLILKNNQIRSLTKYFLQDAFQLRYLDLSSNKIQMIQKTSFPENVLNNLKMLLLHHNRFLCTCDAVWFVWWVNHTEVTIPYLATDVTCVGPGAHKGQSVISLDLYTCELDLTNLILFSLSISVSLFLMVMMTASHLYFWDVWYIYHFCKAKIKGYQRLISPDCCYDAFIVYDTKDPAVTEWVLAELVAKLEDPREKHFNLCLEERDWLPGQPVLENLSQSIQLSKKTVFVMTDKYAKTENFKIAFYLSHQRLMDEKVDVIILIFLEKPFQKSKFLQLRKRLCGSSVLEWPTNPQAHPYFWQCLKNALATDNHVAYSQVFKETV
# [3] = molecular target: T2, hTLR7; assay: EC50 of GS9620 for hTLR7 as reported in WO2016023511A1; conditions: in words, from the EC50 values reported in WO2016023511A1
Compound,EC50 [1],EC50 [2],selectivity to TLR7 [3]
CCCCOc1nc(N)c2c(n1)N(Cc1cccc(CN3CCCC3)c1)CC(=O)N2 [GS9620],–,–,poor
"COCCOc1ncc2[nH]c(=O)n(Cc3ccc([C@@H](C)N4CCCC4)cc3)c2n1 [Example 42, (R)-2-(2-methoxyethoxy)-9-(4-(1-(pyrrolidin-1-yl)ethyl)benzyl)-7,9-dihydro-8H-purin-8-one]",> 100 µM,0.001 to 1 µM,–
"COCCOc1ncc2c(n1)n(Cc1ccc(CN3CCCC3)cc1)c(=O)n2C [Example 56, 9-(4-(pyrrolidin-1-ylmethyl)benzyl)-7-methyl-2-(2-methoxyethoxy)-7,9-dihydro-8H-purin-8-one]",> 100 µM,> 100 µM,–

# Second part, led by results:
EC50 [1],EC50 [2],Compound,selectivity to TLR7 [3]
> 100 µM,1 to 10 µM,"COCCOc1ncc2[nH]c(=O)n(Cc3ccc(CN(C)C)cc3)c2n1 [Example 9, 9-(4-((dimethylamino)methyl)benzyl)-2-(2-methoxyethoxy)-7,9-dihydro-8H-purin-8-one]",–
> 100 µM,> 100 µM,"O=c1[nH]c2cnc(OCC3CCOCC3)nc2n1Cc1cccc(CN2CCCC2)c1 [Example 28, 9-(3-(pyrrolidin-1-ylmethyl)benzyl)-2-((tetrahydro-2H-pyran-4-yl)methoxy)-7,9-dihydro-8H-purin-8-one]",–
